Structures can show the parent of a compound that is named as a salt.
Assay: Stability of the product (observation during preparation)
Format: physicochemical
Settings: observed during preparation and purification

CCn1cc(C(=O)O)c(=O)c2cc(F)c(N3CCN(C=N[C@@H]4C(=O)N5[C@@H]4SC(C)(C)[C@@H]5C(=O)O)CC3)nc21 [Compound H, [2S-(2α,5α,6β)]-7-[4-[[(2-Carboxy-2,3-dimethyl-7-oxo-4-thia-1-azabicyclo[3.2.0]-hept-6-yl)imino]methyl]-1-piperazinyl]-1-ethyl-6-fluoro-1,4-dihydro-4-oxo-1,8-naphthyridine-carboxylic acid disodium salt]
stability of the product: very unstable
